Test results as given in patent publication US20260274829A1, “NEW E3 UBIQUITIN LIGASE LIGAND, PROTEIN DEGRADATION AGENT AND USE THEREOF” (GLUETACS THERAPEUTICS (SHANGHAI) CO., LTD., priority 2023, published 2026).

Molecular target: T1, human Cereblon WT GST-tagged protein (Homo sapiens, UniProt Q96SW2)
T1 construct: purchased CISBIO 64BDCRBNPEH
Assay: CRBN binding, HTRF CEREBLON BINDING kit
Settings: CRBN binding, HTRF CEREBLON BINDING kit
Summary of the method: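 HTRF competition in which test compounds displace a Thalidomide-Re tracer from GST-tagged human Cereblon WT, detected with a GST Eu antibody. Incubation lasted 3 hours at room temperature, with emission read at 620 and 665 nm. Inhibition rate was derived from 665/620 ratios relative to blank and solvent control wells.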

T1 sequence (Q96SW2 whole entry): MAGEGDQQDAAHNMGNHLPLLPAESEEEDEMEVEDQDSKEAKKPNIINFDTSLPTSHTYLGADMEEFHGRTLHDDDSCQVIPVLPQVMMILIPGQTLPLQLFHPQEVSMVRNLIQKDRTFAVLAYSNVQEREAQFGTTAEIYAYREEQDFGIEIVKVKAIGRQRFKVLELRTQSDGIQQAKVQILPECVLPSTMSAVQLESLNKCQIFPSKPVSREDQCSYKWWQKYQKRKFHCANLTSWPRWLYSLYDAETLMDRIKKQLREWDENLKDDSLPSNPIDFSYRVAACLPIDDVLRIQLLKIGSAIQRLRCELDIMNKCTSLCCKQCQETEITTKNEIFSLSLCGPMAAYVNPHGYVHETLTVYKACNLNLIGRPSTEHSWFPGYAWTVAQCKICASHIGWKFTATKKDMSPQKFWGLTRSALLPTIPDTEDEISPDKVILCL

| SMILES | IC50 [nM] |
| --- | --- |
| CC(C)(O)c1cc2nn(C3CCN(Cc4ccc(N5CCC(=O)NC5=O)cn4)CC3)cc2cc1NC(=O)c1cccc(C(F)(F)F)n1 [GT-05756, N-(2-(1-((5-(2,4-dioxotetrahydropyrimidin-1(2H)-yl)pyridin-2-yl)methyl)piperidin-4-yl)-6-(2-hydroxypropan-2-yl)-2H-indazol-5-yl)-6-(trifluoromethyl)picolinamide] | 500 to 1000 |
| CN(C)C(=O)c1cc2cnc(Nc3ccc(N4CCC(N(C)Cc5cccc(N6CCC(=O)NC6=O)c5)CC4)cn3)nc2n1C1CCCC1 [GT-06492, 7-cyclopentyl-2-((5-(4-((3-(2,4-dioxotetrahydropyrimidin-1(2H)-yl)benzyl)(methyl)amino)piperidin-1-yl)pyridin-2-yl)amino)-N,N-dimethyl-7H-pyrrolo[2,3-d]pyrimidine-6-carboxamide] | 1000 to 1900 |
| O=C1CCN(c2cc(CN3C[C@H]4C[C@@H]3CN4c3ccc(-c4cc(F)c5c(c4)C(=O)N(C(C(=O)Nc4nccs4)c4ncn6c4CCC6)C5)cc3)ccn2)C(=O)N1 (stereo partly drawn) [GT-07387, 2-(6,7-dihydro-5H-pyrrolo[1,2-c]imidazol-1-yl)-2-(6-(4-((1R,4R)-5-((2-(2,4-dioxotetrahydropyrimidin-1(2H)-yl)pyridin-4-yl)methyl)-2,5-diazabicyclo[2.2.1]heptan-2-yl)phenyl)-4-fluoro-1-oxoisoindolin-2-yl)-N-(thiazol-2-yl)acetamide] | 1000 to 1900 |
| O=C1CCN(c2cccc(CN3CCC(N4CCN(c5ccc6c(c5)nc(NC(=O)c5cccc(C(F)(F)F)c5)n6[C@H]5CC[C@@H](CO)CC5)CC4)CC3)c2)C(=O)N1 [GT-05022, N-(5-(4-(1-(3-(2,4-dioxotetrahydropyrimidin-1(2H)-yl)benzyl)piperidin-4-yl)piperazin-1-yl)-1-((1s,4s)-4-(hydroxymethyl)cyclohexyl)-1H-benzo[d]imidazol-2-yl)-3-(trifluoromethyl)benzamide] | 1000 to 1900 |
| O=C1CCN(c2cc(CN3C[C@H]4C[C@@H]3CN4c3ccc(-c4cc(F)c5c(c4)C(=O)N(C(C(=O)Nc4nccs4)c4ncn6c4CCC6)C5)cc3)c(F)cn2)C(=O)N1 (stereo partly drawn) [GT-07386, 2-(6,7-dihydro-5H-pyrrolo[1,2-c]imidazol-1-yl)-2-(6-(4-((1R,4R)-5-((2-(2,4-dioxotetrahydropyrimidin-1(2H)-yl)-5-fluoropyridin-4-yl)methyl)-2,5-diazabicyclo[2.2.1]heptan-2-yl)phenyl)-4-fluoro-1-oxoisoindolin-2-yl)-N-(thiazol-2-yl)acetamide] | 1000 to 1900 |

Results, then the molecule that gave them:

| IC50 [nM] | SMILES |
| --- | --- |
| < 500 | CCc1cc2c(cc1N1CCC(N3CCN(Cc4cc(C5CCC(=O)NC5=O)cnc4F)CC3)CC1)C(C)(C)c1[nH]c3cc(C#N)ccc3c1C2=O (centres unmarked) [GT-07703, 8-(4-(4-((5-(2,6-dioxopiperidin-3-yl)-2-fluoropyridin-3-yl)methyl)piperazin-1-yl)piperidin-1-yl)-9-ethyl-6,6-dimethyl-11-oxo-6,11-dihydro-5H-benzo[b]carbazole-3-carbonitrile] |
| 500 to 1000 | O=C1CCN(c2ccc(CN3CCN(c4ccc(-c5cc(F)c6c(c5)C(=O)N(C(C(=O)Nc5nccs5)c5ncn7c5CCC7)C6)cc4)CC3)cc2)C(=O)N1 (centres unmarked) [GT-06164, 2-(6,7-dihydro-5H-pyrrolo[1,2-c]imidazol-1-yl)-2-(6-(4-(4-(4-(2,4-dioxotetrahydropyrimidin-1(2H)-yl)benzyl)piperazin-1-yl)phenyl)-4-fluoro-1-oxoisoindolin-2-yl)-N-(thiazol-2-yl)acetamide] |
| 500 to 1000 | NC(=O)c1ncc(N2CCCCC2)nc1Nc1ccc(C2CCN(Cc3cccc(NC4CCC(=O)NC4=O)c3)CC2)cc1 (centres unmarked) [GT-04791, 3-((4-(1-(3-((2,6-dioxopiperidin-3-yl)amino)benzyl)piperidin-4-yl)phenyl)amino)-5-(piperidin-1-yl)pyrazine-2-carboxamide] |
